In patent EP1226809B1, “SKIN TEXTURE-IMPROVING AGENTS” (KYOWA HAKKO KOGYO CO., LTD., priority 1999, dated 2001):
Read-outs that look alike come from different tables or passages of the source.

How the values were obtained:
collagenase I (MMP-1) = conditions: 37°C, 4 hours
Procedure: Measurement of collagenase-inhibiting activity was carried out in the following manner according to the method described in Development and Application of Simple Microassay for Collagenase Activity; Nagai, et al., Inflammation, Vol. 4, p. 123-130, Nihon Igakukan (1984).
To 25 µl of a neutralization buffer (0.1 mol/l Tris hydrochloride, pH 7.5, 0.4 mol/l NaCl, 10 mmol/l CaCl2 and 0.04% NaN3) was added 25 µl of fluorescein isothiocyanate (FITC)-labeled collagen I (Cosmo Bio Co.) To the resulting mixture were further added 50 µl of collagenase I (MMP-1) (Cosmo Bio Co.) and a test sample dissolved in 10 µl of the neutralization buffer, followed by reaction at 37°C for 4 hours. To the reaction mixture was added 5 µl of a reaction terminating solution [80 mmol/l o-phenanthroline/50% (v/v) aqueous ethanol] to stop the reaction. To the resulting mixture was added 100 µl of a twice diluted neutralization buffer and the resulting mixture was allowed to stand at 35°C for 60 minutes. After cooling on ice for 5 minutes, 200 µl of 70% (v/v) aqueous ethanol was added to the mixture, followed by vigorous stirring for 5 minutes. The resulting mixture was centrifuged at 15,000 rpm at 4°C for 10 minutes to obtain the supernatant. By using a spectrophotofluorometer, the supernatant was irradiated with excitation light at 495 nm and emission light at 520 nm (A) was measured to determine the amount of decomposed collagen. The collagenase-inhibiting activity was calculated according to equation 4 by using data (B) obtained when purified water was employed in place of collagenase I and data (C) obtained when a neutralization buffer was employed in place of the test sample. Collagenase-inhibiting activity(%) = [(A)-(B)]/[(C)-(B)] × 100 [formula]

[1] = system: Human neonate-derived fibroblasts; assay: Measurement of collagen synthesis-promoting activity on human fibroblasts (3H-glycine incorporation); format: cell-based; conditions: 300 µmol/l
Procedure: 201-271, Kodansha Scientific (1986).
Human neonate-derived fibroblasts (Sanko Junyaku Co., Ltd.) were suspended in DMEM containing 10% fetal bovine serum [Virology, 8, 396 (1959)] and cultured at 37°C in 5% CO2 to the stationary phase. To the resulting culture were added ^3H-labeled glycine and a test substance, followed by further culturing for 72 hours. After 500 µmol/l phenylmethanesulfonyl fluoride (PMSF) was added to the obtained culture, the cells and the medium were collected, followed by disruption with a sonicator to extract proteins. To the extract were added 100 µmol/l bovine serum albumin (BSA) and 10% trichloroacetic acid (TCA), and the resulting mixture was centrifuged at 3000 rpm for 5 minutes to collect the precipitate. […]
After the reaction mixture was separated by ultrafiltration (molecular weight: 10,000), the radioactivity of the protein fraction in the filtrate (CDP) was measured as the amount of newly synthesized collagen. Then, the radioactivity of the protein fraction which was not filtered (NCDP) was measured, and the collagen synthesis ratio was calculated according to equation 2. The relative collagen synthesis-promoting activity (the change in collagen synthesis) was calculated according to equation 3 as the relative value of the collagen synthesis ratio in the presence of a test substance based on the control. […]

Collagenase-inhibiting activity (%) (collagenase I (MMP-1); 1 µmol/l)	Collagenase-inhibiting activity (%) (collagenase I (MMP-1); 10 µmol/l)	Collagenase-inhibiting activity (%) (collagenase I (MMP-1); 100 µmol/l)	Collagenase-inhibiting activity (%) (collagenase I (MMP-1); 1 mmol/l)	SMILES	Relative collagen synthesis-promoting activity (%) ([1]; after 72 hours of culturing, control = 100)	amount of collagen synthesized ([1]; result in words, compared with control (=100%))
17%	37%	100%		Oc1cc(O)c2c(c1)O[C@H](c1ccc(O)c(O)c1)[C@H](O)[C@H]2c1c(O)cc(O)c2c1O[C@H](c1ccc(O)c(O)c1)[C@H](O)[C@H]2c1c(O)cc(O)c2c1O[C@H](c1ccc(O)c(O)c1)[C@H](O)C2 [PC1, epicatechin-(4β→ 8)-epicatechin-(4β→8)-epicatechin]		
		69.4%	100%	Oc1cc(O)c2c(c1)O[C@H](c1ccc(O)c(O)c1)[C@H](O)[C@H]2c1c(O)cc(O)c2c1O[C@H](c1ccc(O)c(O)c1)[C@H](O)C2 [PB2, epicatechin-(4β→8)-epicatechin]	120.8%	increased
